Measured values reported in ChEMBL document CHEMBL1201862, “PubChem BioAssay data set” (2004).
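1) Cells in 96-well plates. 2) Compound, 48 h, 5 concentrations. 3) Linear interpolation between surrounding doses. 4) Unreached endpoint = highest concentration. At the GI50, growth is halved.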 Active and inactive are the calls of the source. Rule as the data show it: active = GI50 up to about 1.1 µM and inactive = higher.

Experiments:
Assay in all cases: NCI anticancer screen, dose series, 48 h
SN12C = tested on: SN12C
NCI/ADR-RES = tested on: NCI/ADR-RES
UACC-257 = tested on: UACC-257
T47D = tested on: T47D
PC-3 = tested on: PC-3
SNB-19 = tested on: SNB-19
SW-620 = tested on: SW-620
MDA-MB-435 = tested on: MDA-MB-435
ACHN = tested on: ACHN
SK-MEL-28 = tested on: SK-MEL-28
SF-295 = tested on: SF-295
CAKI-1 = tested on: CAKI-1
UACC-62 = tested on: UACC-62
BT-549 = tested on: BT-549
NCI-H522 = tested on: NCI-H522
LOX IMVI = tested on: LOX IMVI
RXF 393 = tested on: RXF 393
SK-MEL-2 = tested on: SK-MEL-2
OVCAR-3 = tested on: OVCAR-3
SR = tested on: SR

SMILES | GI50 (SN12C) | GI50 (NCI/ADR-RES) | GI50 (UACC-257) | GI50 (T47D) | GI50 (PC-3) | GI50 (SNB-19) | GI50 (SW-620) | GI50 (MDA-MB-435) | GI50 (ACHN) | GI50 (SK-MEL-28) | GI50 (SF-295) | GI50 (CAKI-1) | GI50 (UACC-62) | GI50 (BT-549) | GI50 (NCI-H522) | GI50 (LOX IMVI) | GI50 (RXF 393) | GI50 (SK-MEL-2) | GI50 (OVCAR-3) | GI50 (SR)
COc1nc2ccc(Cl)c(C(O)c3ccccc3)c2nc1OC (stereo not given) | 19.7 µM (inactive) | 20.3 µM (inactive) | 24.6 µM (inactive) | 19.8 µM (inactive) | 26.5 µM (inactive) | 24.9 µM (inactive) | 26.7 µM (inactive) | 12.5 µM (inactive) | 30.2 µM (inactive) | 35.5 µM (inactive) | 10.5 µM (inactive) | 12.1 µM (inactive) | 17.1 µM (inactive) | 30.9 µM (inactive) | 15.7 µM (inactive) | 17.5 µM (inactive) | 14.3 µM (inactive) | 18.5 µM (inactive) | 24.1 µM (inactive) | 6.52 µM (inactive)
O=C1c2cccc(NCCNCCO)c2C(=O)c2cccc(NCCNCCO)c21 | 0.782 µM (active) | 10.9 µM (inactive) | 3.04 µM (inactive) | 1.69 µM (inactive) | 0.733 µM (active) | 0.897 µM (active) | 0.714 µM (active) | 1.25 µM (inactive) | 2.55 µM (inactive) | 1.71 µM (inactive) | 1.79 µM (inactive) | 0.64 µM (active) | 1.81 µM (inactive) | 2.96 µM (inactive) | 0.312 µM (active) | 0.272 µM (active) | 1.59 µM (inactive) | 1.28 µM (inactive) | 1.57 µM (inactive) | 0.519 µM (active)
c1ccc(P(CCP(c2ccccn2)c2ccccn2)c2ccccc2)cc1 | 14 µM (inactive) | > 100 µM (inactive) | < 0.0185 µM (active) | 0.0435 µM (active) | 0.0281 µM (active) | 0.498 µM (active) | 3.51 µM (inactive) | 12.1 µM (inactive) | 23.3 µM (inactive) | 64 µM (inactive) | 0.497 µM (active) | > 90.8 µM (inactive) | 63.7 µM (inactive) | 32.9 µM (inactive) | 0.0314 µM (active) | 0.038 µM (active) | 19.8 µM (inactive) | 7.67 µM (inactive) | < 0.0172 µM (active) | 19.4 µM (inactive)
S=C1NC(c2ccccc2)NC(c2ccccc2)S1 (stereo not given) | > 100 µM (inactive) | > 100 µM (inactive) | 34.6 µM (inactive) | > 100 µM (inactive) | > 100 µM (inactive) | 55.5 µM (inactive) | > 100 µM (inactive) | > 100 µM (inactive) | > 100 µM (inactive) | > 100 µM (inactive) | > 100 µM (inactive) | > 100 µM (inactive) | 55 µM (inactive) | > 100 µM (inactive) | 41.6 µM (inactive) | 78.9 µM (inactive) | > 100 µM (inactive) | > 100 µM (inactive) | > 100 µM (inactive) | > 100 µM (inactive)
Cc1ccc(NC(=S)N/N=C(/c2ccccc2)c2ccccn2)cc1 | 0.121 µM (active) | 0.0302 µM (active) | < 0.0156 µM (active) | < 0.0509 µM (active) | < 0.0154 µM (active) | 3.27 µM (inactive) | < 0.0183 µM (active) | 0.4 µM (active) | < 0.0371 µM (active) | 0.224 µM (active) | 0.212 µM (active) | 0.059 µM (active) | 0.304 µM (active) | 4.25 µM (inactive) | 1.31 µM (inactive) | 0.0346 µM (active) | 0.621 µM (active) | 4.52 µM (inactive) | 0.0169 µM (active) | < 0.01 µM (active)
O=C1c2c(F)c(F)c(F)c(F)c2SC2=Nc3cccc4cccc(c34)N12 | 3.79 µM (inactive) | 2.77 µM (inactive) | 5.19 µM (inactive) | 1.56 µM (inactive) | 5.68 µM (inactive) | 8.09 µM (inactive) | 3.29 µM (inactive) | 4.94 µM (inactive) | 7.05 µM (inactive) | 4.27 µM (inactive) | 14.5 µM (inactive) | 14.9 µM (inactive) | 4.22 µM (inactive) | 10.9 µM (inactive) | 2.54 µM (inactive) | 2.77 µM (inactive) | 4.1 µM (inactive) | 2.75 µM (inactive) | 3.21 µM (inactive) | 2.13 µM (inactive)
CC1=C(C#N)C23C(=O)c4ccccc4C(=O)C2=C(O)C=CC3(O)N1 (stereo not given) | 2.24 µM (inactive) | 7.83 µM (inactive) | 2.07 µM (inactive) | 7.4 µM (inactive) | 4.57 µM (inactive) | 4.33 µM (inactive) | 0.553 µM (active) | 2.81 µM (inactive) | 1.53 µM (inactive) | 2.51 µM (inactive) | 13.6 µM (inactive) | 4.06 µM (inactive) | 2.52 µM (inactive) | 1.13 µM (inactive) | 1.48 µM (inactive) | 0.512 µM (active) | 3.8 µM (inactive) | 4.4 µM (inactive) | 0.861 µM (active) | 0.269 µM (active)
O=C1C=CC(=O)c2ncccc21 | 5.14 µM (inactive) | 11.3 µM (inactive) | 5.05 µM (inactive) | 2.19 µM (inactive) | 9.82 µM (inactive) | 6.17 µM (inactive) | 1.93 µM (inactive) | 5.7 µM (inactive) | 2.63 µM (inactive) | 3.46 µM (inactive) | 7.6 µM (inactive) | 1.8 µM (inactive) | 2.99 µM (inactive) | 4.45 µM (inactive) | 1.89 µM (inactive) | 2.09 µM (inactive) | 6.01 µM (inactive) | 13.6 µM (inactive) | 1.3 µM (inactive) | 0.597 µM (active)
CO[C@H]1C[C@H](O[C@H]2CC[C@]3(C=O)[C@H]4CC[C@]5(C)[C@@H](C6=CC(=O)OC6)CC[C@]5(O)[C@@H]4CC[C@]3(O)C2)O[C@H](C)[C@H]1O [CYMARIN] | 0.042 µM (active) | 0.257 µM (active) | 0.37 µM (active) | 0.384 µM (active) | 0.203 µM (active) | 0.713 µM (active) | 0.243 µM (active) | 0.344 µM (active) | 0.0912 µM (active) | 0.845 µM (active) | 0.133 µM (active) | 0.102 µM (active) | 0.43 µM (active) | 0.207 µM (active) | < 0.0393 µM (active) | 0.184 µM (active) | 0.0467 µM (active) | 0.397 µM (active) | 0.146 µM (active) | 0.409 µM (active)
